In US6787354B2, “Methods for the early diagnosis of ovarian cancer” (The Board of Trustees of The University of Arkansas, priority 1997, dated 2004):
Ends that are not written are not given here.

Tested on: peptide-loaded lymphoblastoid cell lines (LCL)
Experiment: 51Cr-release cytotoxicity assay with peptide-specific CD8+ CTL
Format: cell-based, human
Method: Monocyte-derived dendritic cells were generated from peripheral blood drawn from normal adult donors of the appropriate HLA type. Adherent monocytes were cultured in AIM-V (Gibco-BRL) supplemented with GM-CSF and IL-4 according to standard techniques (Santin et al, 2000, 2001). After 5-6 days, dendritic cell maturation was induced by addition of PGE2, IL-1β and TNFα for a further 48 h.
Mature dendritic cells were loaded with peptide (2×10^6 dendritic cells with 50 μg/ml peptide in 1 ml serum-free AIM-V medium for 2 h at 37° C.) and washed once prior to culture with 1×10^6/ml peripheral blood mononuclear cells (PBMC) in AIM-V or AIM-V plus 5% human AB serum. The PBMC:DC ratio was between 20:1 and 30:1. After 7 days, responder T cells were restimulated with peptide-loaded, irradiated autologous dendritic cells or peripheral blood mononuclear cells at responder:stimulator ratios between 10:1 and 20:1 or 1:1 and 1:10 respectively. At this point, cultures were supplemented with recombinant human IL-2 (10-100 U/ml), and fed with 50-75% changes of fresh medium plus IL-2 every 2-4 days. T cell lines were established and maintained by peptide restimulation every 14-21 days. Responder CD8^+T cells were purified by positive selection with anti-CD8-coupled magnetic beads (Dynal, Inc.) after the 2nd or 3rd antigen stimulation.
Peptide-specific cytotoxicity was tested in standard 5-6 h microwell ^51Cr-release assays (Nazaruk et al, 1998). Autologous EBV-transformed lymphoblastoid cell lines (LCL) were loaded with peptide (50 μg/ml, 1 h at 37° C.) and subsequently ^51Cr-labeled (50 μCi in 200-300 μl, 1 h at 37° C.). Peptide-loaded ^51Cr-labeled LCL were incubated with CD8^+T cells at effector-target ration between 5:1 and 1.25:1. Cytotoxicity was recorded as percentage ^51Cr released into culture supernatants.

Sequence	Blocking of cytotoxicity against peptide-loaded LCL by MAb specific for a non-polymorphic HLA class I determinant	Blocking of cytotoxicity by MAb specific for HLA A2.1
GRWPWQVSL [GRWPWQVSL]	could be blocked	–
SLGRWPWQV [SLGRWPWQV]	could be blocked	blocked
